This note sets out measurements from ChEMBL document CHEMBL1221220, “Transport and signaling via the amino acid binding site of the yeast Gap1 amino acid transceptor” (Nat Chem Biol, 2009).

The structures appear in SMILES notation. Substitutions are numbered along the chain they refer to. The source made the active and inactive calls. No cut-off for these calls is given here.

The subject of assay [1] is T1, General amino-acid permease GAP1 (Saccharomyces cerevisiae), P19145 [C397C].
T1 sequence (whole entry): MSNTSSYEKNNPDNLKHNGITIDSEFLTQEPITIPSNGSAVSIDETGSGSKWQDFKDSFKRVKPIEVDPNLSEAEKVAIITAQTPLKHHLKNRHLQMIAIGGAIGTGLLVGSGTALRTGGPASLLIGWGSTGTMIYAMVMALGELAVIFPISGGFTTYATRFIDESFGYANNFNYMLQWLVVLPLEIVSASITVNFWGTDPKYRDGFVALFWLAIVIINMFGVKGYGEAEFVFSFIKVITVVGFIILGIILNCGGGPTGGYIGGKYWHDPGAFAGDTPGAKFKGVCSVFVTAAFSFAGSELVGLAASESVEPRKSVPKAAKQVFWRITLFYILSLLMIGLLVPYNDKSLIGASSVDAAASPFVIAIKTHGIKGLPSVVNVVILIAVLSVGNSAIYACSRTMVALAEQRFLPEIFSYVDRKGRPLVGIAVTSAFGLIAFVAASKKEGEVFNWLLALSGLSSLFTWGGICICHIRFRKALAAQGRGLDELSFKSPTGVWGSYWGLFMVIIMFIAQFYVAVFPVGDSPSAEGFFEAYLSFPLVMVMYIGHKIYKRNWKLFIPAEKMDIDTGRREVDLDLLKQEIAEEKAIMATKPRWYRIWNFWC
In words: Activation of yeast Gap1 C397C mutant-mediated amino acid uptake at 10 mM.

In assay [2] the test system is T2, General amino-acid permease GAP1 (Saccharomyces cerevisiae), P19145 [A403C].
T2 sequence (whole entry): T1 sequence (whole entry) with A403C
In words: Activation of yeast Gap1 A403C mutant-mediated amino acid uptake at 10 mM.

Assay [3] relates to T3, General amino-acid permease GAP1 (Saccharomyces cerevisiae), P19145 [A396C].
T3 sequence (whole entry): T1 sequence (whole entry) with A396C
The experiment in a line: Induction of yeast Gap1 A396C mutant-mediated trehalose activation at 10 mM.

Assay [4] concerns T4, General amino-acid permease GAP1 (Saccharomyces cerevisiae), P19145 [L383C].
T4 sequence (whole entry): T1 sequence (whole entry) with L383C
The experiment in a line: Induction of yeast Gap1 L383C mutant-mediated trehalose activation at 2 mM in presence of 10 mM MTSEA treated before compound addition.

Assay [5] concerns T2, General amino-acid permease GAP1 (Saccharomyces cerevisiae), P19145 [A403C]. The experiment in a line: Induction of yeast Gap1 A403C mutant-mediated […] activation at 2 mM in presence of 10 mM MTSEA treated before compound addition.

For the molecule `NC(=O)NCCC[C@H](N)C(=O)O`, the result in assay [1], in assay [2] and in assay [3] was inactive. Also, the inhibition result in assay [4] and in assay [5] was “Active” throughout.
